Measured values as given in patent US20250026752A1, “POSITIVE ALLOSTERIC MODULATORS OF THE MUSCARINIC ACETYLCHOLINE RECEPTOR M4” (Vanderbilt University, priority 2021, published 2025).

Molecular target: T1, human mAChR M4 (Homo sapiens, UniProt P08173)
T1 construct: expressed in transfected cells; host or cells: CHO-K1 (ATCC), stably expressing hM4 and Gqi5
T1 sequence (P08173 1-479): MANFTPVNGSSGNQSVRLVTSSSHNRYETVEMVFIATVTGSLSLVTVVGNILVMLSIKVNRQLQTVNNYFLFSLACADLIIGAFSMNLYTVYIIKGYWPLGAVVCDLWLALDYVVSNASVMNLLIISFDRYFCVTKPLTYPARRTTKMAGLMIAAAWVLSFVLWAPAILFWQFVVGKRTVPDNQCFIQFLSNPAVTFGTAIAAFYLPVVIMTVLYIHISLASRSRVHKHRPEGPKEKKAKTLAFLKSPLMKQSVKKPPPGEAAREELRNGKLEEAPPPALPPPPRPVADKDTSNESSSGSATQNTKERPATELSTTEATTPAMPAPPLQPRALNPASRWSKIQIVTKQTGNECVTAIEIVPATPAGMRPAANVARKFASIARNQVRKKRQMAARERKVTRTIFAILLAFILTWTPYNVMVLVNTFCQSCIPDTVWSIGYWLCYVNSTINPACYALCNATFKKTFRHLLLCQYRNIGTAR
Assay: mAChR M4 cell-based functional assay: calcium flux (Fluo-4, FDSS), positive allosteric modulator activity on the EC20 acetylcholine response, hM4-Gqi5 CHO-K1 cells
Set-up: Emax: dose or concentration left out as unconfirmed
Conditions: for Emax at 30 µM: CHO-K1, human M4, % ACh maximum at 30 μM; for EC50: human M4, PAM activity on EC20 acetylcholine response, calcium flux, read-out: Human M4 EC50
In short: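 Potentiation was taken as the concentration-dependent rise in the EC20 acetylcholine calcium response, fitted by a four-parameter logistic with EC20 as baseline. Fluo-4-loaded hM4-Gqi5 CHO-K1 cells received 11-point, threefold-diluted compound before acetylcholine at 144 s; FDSS read at 1 Hz.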

Cc1ccc(F)c(Oc2cnc3c(c2)CN(c2nc(C)nc4ccc(Cl)cc24)CC3)c1 [Compound 154, 6-chloro-4-[3-(2-fluoro-5-methyl-phenoxy)-7,8-dihydro-5H-1,6-naphthyridin-6-yl]-2-methyl-quinazoline]
Emax at 30 µM: 62%
EC50: 7690 nM

CC1Cc2ncc(C(F)(F)F)cc2CN1c1ncnc2ccc(F)cc12 (centres unmarked) [Compound 155, 6-fluoro-4-[7-methyl-3-(trifluoromethyl)-7,8-dihydro-5H-1,6-naphthyridin-6-yl]quinazoline]
Emax at 30 µM: 98%
EC50: 60 nM

Cc1nc(N2Cc3cc(C(F)(F)F)cnc3CC2C)c2cc(F)ccc2n1 (centres unmarked) [Compound 156, 6-fluoro-2-methyl-4-[7-methyl-3-(trifluoromethyl)-7,8-dihydro-5H-1,6-naphthyridin-6-yl]quinazoline]
Emax at 30 µM: 99%
EC50: 220 nM

Cc1nc(N2Cc3cc(C(F)(F)F)cnc3C(C)C2)c2cc(F)ccc2n1 (centres unmarked) [Compound 157, 6-fluoro-2-methyl-4-[8-methyl-3-(trifluoromethyl)-7,8-dihydro-5H-1,6-naphthyridin-6-yl]quinazoline]
Emax at 30 µM: 95%
EC50: 220 nM

Fc1cc2ncnc(N3CCc4ncc(Oc5ccccc5F)cc4C3)c2cc1F [Compound 158, 6,7-difluoro-4-[3-(2-fluorophenoxy)-7,8-dihydro-5H-1,6-naphthyridin-6-yl]quinazoline]
Emax at 30 µM: 80%
EC50: 270 nM

Fc1cccc(Oc2cnc3c(c2)CN(c2ncnc4cc(F)c(F)cc24)CC3)c1 [Compound 159, 6,7-difluoro-4-[3-(3-flurophenoxy)-7,8-dihydro-5H-1,6-naphthyridin-6-yl]quinazoline]
Emax at 30 µM: 81%
EC50: 680 nM

Cc1ccc2ncnc(N3CCc4ncc(C5CC5)cc4C3)c2c1 [Compound 160, 4-(3-cyclopropyl-7,8-dihydro-5H-1,6-naphthyridin-6-yl)-6-methyl-quinazoline]
Emax at 30 µM: 90%
EC50: 30 nM

COc1ccc2ncnc(N3CCc4ncc(C5CC5)cc4C3)c2c1 [Compound 161, 4-(3-cyclopropyl-7,8-dihydro-5H-1,6-naphthyridin-6-yl)-6-methoxy-quinazoline]
Emax at 30 µM: 83%
EC50: 110 nM

Fc1cc2ncnc(N3CCc4ncc(C5CC5)cc4C3)c2cc1F [Compound 162, 4-(3-cyclopropyl-7,8-dihydro-5H-1,6-naphthyridin-6-yl)-6,7-difluoro-quinazoline]
Emax at 30 µM: 88%
EC50: 60 nM

FC(F)(F)c1ccc2nc(N3CCc4ncc(C5CC5)cc4C3)nc(N3CCc4ncc(C5CC5)cc4C3)c2c1 [Compound 163, 2,4-bis(3-cyclopropyl-7,8-dihydro-5H-1,6-naphthyridin-6-yl)-6-(trifluoromethyl)quinazoline]
Emax at 30 µM: 57%
EC50: > 10000 nM

Fc1ccc2ncnc(N3CCc4ncc(Cc5ccccc5F)cc4C3)c2c1 [Compound 164, 6-fluoro-4-[3-[(2-fluorophenyl)methyl]-7,8-dihydro-5H-1,6-naphthyridin-6-yl]quinazoline]
Emax at 30 µM: 75%
EC50: 590 nM

Cc1nc(N2CCc3ncc(C4CC4)cc3C2)c2cc(C(F)(F)F)ccc2n1 [Compound 165, 4-(3-cyclopropyl-7,8-dihydro-5H-1,6-naphthyridin-6-yl)-2-methyl-6-(trifluoromethyl)quinazoline]
Emax at 30 µM: 77%
EC50: 1810 nM

COc1ccc2nc(Cl)nc(N3CCc4ncc(C(F)(F)F)cc4C3)c2c1 [Compound 166, 2-chloro-6-methoxy-4-[3-(trifluoromethyl)-7,8-dihydro-5H-1,6-naphthyridin-6-yl]quinazoline]
Emax at 30 µM: 70%
EC50: 420 nM

COc1cc2c(N3CCc4ncc(C(F)(F)F)cc4C3)nc(Cl)nc2cc1F [Compound 167, 2-chloro-7-fluoro-6-methoxy-4-[3-(trifluoromethyl)-7,8-dihydro-5H-1,6-naphthyridin-6-yl]quinazoline]
Emax at 30 µM: 72%
EC50: 350 nM

COc1ccc2nc(C)nc(N3CCc4ncc(C(F)(F)F)cc4C3)c2c1 [Compound 168, 6-methoxy-2-methyl-4-[3-(trifluoromethyl)-7,8-dihydro-5H-1,6-naphthyridin-6-yl]quinazoline]
Emax at 30 µM: 71%
EC50: 510 nM

COc1cc2c(N3CCc4ncc(C(F)(F)F)cc4C3)nc(C)nc2cc1F [Compound 169, 7-fluoro-6-methoxy-2-methyl-4-[3-(trifluoromethyl)-7,8-dihydro-5H-1,6-naphthyridin-6-yl]quinazoline]
Emax at 30 µM: 74%
EC50: 260 nM

Fc1ccc(Cc2cnc3c(c2)CN(c2ncnc4ccc(F)cc24)CC3)cc1 [Compound 170, 6-fluoro-4-[3-[(4-fluorophenyl)methyl]-7,8-dihydro-5H-1,6-naphthyridin-6-yl]quinazoline]
Emax at 30 µM: 82%
EC50: 490 nM

Fc1cc2c(N3CCc4ncc(C(F)(F)F)cc4C3)nc(Cl)nc2cc1Cl [Compound 171, 2,7-dichloro-6-fluoro-4-[3-(trifluoromethyl)-7,8-dihydro-5H-1,6-naphthyridin-6-yl]quinazoline]
Emax at 30 µM: 50%
EC50: 1280 nM

Cc1nc(N2CCc3ncc(C(F)(F)F)cc3C2)c2cc(F)c(C)cc2n1 [Compound 172, 6-fluoro-2,7-dimethyl-4-[3-(trifluoromethyl)-7,8-dihydro-5H-1,6-naphthyridin-6-yl]quinazoline]
Emax at 30 µM: 81%
EC50: 810 nM

Fc1ccc2nc(C(F)(F)F)nc(N3CCc4ncc(C(F)(F)F)cc4C3)c2c1 [Compound 173, 6-fluoro-2-(trifluoromethyl)-4-[3-(trifluoromethyl)-7,8-dihydro-5H-1,6-naphthyridin-6-yl]quinazoline]
Emax at 30 µM: 50%
EC50: 170 nM

[2H]c1nc(N2CCc3ncc(-c4cnc(C)s4)cc3C2)c2cc(C)ccc2n1 [Compound 174, 5-[6-(2-deuterio-6-methyl-quinazolin-4-yl)-7,8-dihydro-5H-1,6-naphthyridin-3-yl]-2-methyl-thiazole]
Emax at 30 µM: 82%
EC50: 140 nM

Cc1ccc2nc(C3CC3)nc(N3CCc4ncc(-c5cnn(C6CC6)c5)cc4C3)c2c1 [Compound 175, 2-cyclopropyl-4-[3-(1-cyclopropylpyrazol-4-yl)-7,8-dihydro-5H-1,6-naphthyridin-6-yl]-6-methyl-quinazoline]
Emax at 30 µM: 77%
EC50: 560 nM

Cc1ccc2nc(C3CC3)nc(N3CCc4ncc(-c5cn(C)nc5C)cc4C3)c2c1 [Compound 176, 2-cyclopropyl-4-[3-(1,3-dimethylpyrazol-4-yl)-7,8-dihydro-5H-1,6-naphthyridin-6-yl]-6-methyl-quinazoline]
Emax at 30 µM: 73%
EC50: 740 nM

Cc1ccc2nc(C)nc(N3CCc4ncc(C(F)(F)F)cc4C3)c2c1 [Compound 177, 2,6-dimethyl-4-[3-(trifluoromethyl)-7,8-dihydro-5H-1,6-naphthyridin-6-yl]quinazoline]
Emax at 30 µM: 92%
EC50: 60 nM

Fc1ccc2nc(C3CC3)nc(N3CCc4ncc(C(F)(F)F)cc4C3)c2c1 [Compound 178, 2-cyclopropyl-6-fluoro-4-[3-(trifluoromethyl)-7,8-dihydro-5H-1,6-naphthyridin-6-yl]quinazoline]
Emax at 30 µM: 112%
EC50: 1900 nM

COc1nc(N2CCc3ncc(C(F)(F)F)cc3C2)c2cc(C)ccc2n1 [Compound 179, 2-methoxy-6-methyl-4-[3-(trifluoromethyl)-7,8-dihydro-5H-1,6-naphthyridin-6-yl]quinazoline]
Emax at 30 µM: 98%
EC50: 340 nM

Cc1ccc2nc(N(C)C)nc(N3CCc4ncc(C(F)(F)F)cc4C3)c2c1 [Compound 180, N,N,6-trimethyl-4-[3-(trifluoromethyl)-7,8-dihydro-5H-1,6-naphthyridin-6-yl]quinazolin-2-amine]
Emax (CHO-K1): 90%
EC50: 710 nM

Cc1ccc2nc(Nc3ccnn3C)nc(N3CCc4ncc(C(F)(F)F)cc4C3)c2c1 [Compound 181, 6-methyl-N-(2-methylpyrazol-3-yl)-4-[3-(trifluoromethyl)-7,8-dihydro-5H-1,6-naphthyridin-6-yl]quinazolin-2-amine]
Emax at 30 µM: 85%
EC50: 550 nM

Cc1nc(N2CCc3ncc(N4CCOc5ncccc54)cc3C2)c2cc(C(F)(F)F)ccc2n1 [Compound 182, 1-[6-[2-methyl-6-(trifluoromethyl)quinazolin-4-yl]-7,8-dihydro-5H-1,6-naphthyridin-3-yl]-2,3-dihydropyrido[2,3-b][1,4]oxazine]
Emax at 30 µM: 81%
EC50: 3300 nM

Fc1ccc2nc(N3CCOCC3)nc(N3CCc4ncc(C(F)(F)F)cc4C3)c2c1 [Compound 183, 4-[6-fluoro-4-[3-(trifluoromethyl)-7,8-dihydro-5H-1,6-naphthyridin-6-yl]quinazolin-2-yl]morpholine]
Emax at 30 µM: 71%
EC50: 260 nM

Fc1ccc2nc(NC3CC(F)(F)C3)nc(N3CCc4ncc(C(F)(F)F)cc4C3)c2c1 [Compound 184, N-(3,3-difluorocyclobutyl)-6-fluoro-4-[3-(trifluoromethyl)-7,8-dihydro-5H-1,6-naphthyridin-6-yl]quinazolin-2-amine]
Emax at 30 µM: 93%
EC50: 1380 nM
